Laboratory results from ChEMBL document CHEMBL1201862, “PubChem BioAssay data set” (2004).
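Step 1: Grow cells in 96-well plates. Step 2: Expose to compound for 48 hours at 5 concentrations. Step 3: Interpolate endpoints linearly; if unreached, use highest concentration. Abbreviation: GI50, concentration required for 50% inhibition of growth.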 Calls of active or inactive are those of the source. Rule as the data show it: active = GI50 up to about 1.1 µM and inactive = higher.

Tests used:
Assay in all cases: inhibition of tumour cell growth, NCI panel, 48 h
SF-295 = test system: SF-295
M19-MEL = test system: M19-MEL
U-251 = test system: U-251
UACC-257 = test system: UACC-257
SN12C = test system: SN12C
ACHN = test system: ACHN
SW-620 = test system: SW-620
CAKI-1 = test system: CAKI-1
SNB-19 = test system: SNB-19
NCI-H522 = test system: NCI-H522
M14 = test system: M14
DMS-114 = test system: DMS-114
COLO 205 = test system: COLO 205
NCI-H460 = test system: NCI-H460
SNB-75 = test system: SNB-75
OVCAR-8 = test system: OVCAR-8
SF-268 = test system: SF-268
NCI-H226 = test system: NCI-H226
TK-10 = test system: TK-10
SK-MEL-2 = test system: SK-MEL-2
OVCAR-4 = test system: OVCAR-4
K562 = test system: K562
HCC 2998 = test system: HCC 2998
CCRF-CEM = test system: CCRF-CEM
SF-539 = test system: SF-539
LOX IMVI = test system: LOX IMVI
786-0 = test system: 786-0
KM-20L2 = test system: KM-20L2
HOP-92 = test system: HOP-92
Malme-3M = test system: Malme-3M
KM12 = test system: KM12
LXFL 529 = test system: LXFL 529
A549 = test system: A549
UO-31 = test system: UO-31
OVCAR-5 = test system: OVCAR-5
SNB-78 = test system: SNB-78
RXF 393 = test system: RXF 393
RPMI-8226 = test system: RPMI-8226
HCT-116 = test system: HCT-116
HL-60 = test system: HL-60
HT-29 = test system: HT-29
HOP-18 = test system: HOP-18
UACC-62 = test system: UACC-62
A498 = test system: A498
DMS-273 = test system: DMS-273
SK-OV-3 = test system: SK-OV-3
SK-MEL-5 = test system: SK-MEL-5
RXF 631 = test system: RXF 631
SK-MEL-28 = test system: SK-MEL-28
DLD-1 = test system: DLD-1
SR = test system: SR
OVCAR-3 = test system: OVCAR-3
HCT-15 = test system: HCT-15
MOLT-4 = test system: MOLT-4
IGROV-1 = test system: IGROV-1
HOP-62 = test system: HOP-62
EKVX = test system: EKVX
NCI-H23 = test system: NCI-H23

COc1ccc2[nH]c3c(C)c4c(c(C)c3c2c1)CN(C)CC4
GI50 (SF-295): 18.8 µM (inactive) | GI50 (M19-MEL): 17.3 µM (inactive) | GI50 (U-251): 17.7 µM (inactive) | GI50 (UACC-257): 17.7 µM (inactive) | GI50 (SN12C): 16.3 µM (inactive) | GI50 (ACHN): 18.8 µM (inactive) | GI50 (SW-620): 4.21 µM (inactive) | GI50 (CAKI-1): 18.5 µM (inactive) | GI50 (SNB-19): 17.3 µM (inactive) | GI50 (NCI-H522): 18 µM (inactive) | GI50 (M14): 16.3 µM (inactive) | GI50 (DMS-114): 18.6 µM (inactive) | GI50 (COLO 205): 17.4 µM (inactive) | GI50 (NCI-H460): 11.6 µM (inactive) | GI50 (SNB-75): 18 µM (inactive) | GI50 (OVCAR-8): 11.9 µM (inactive) | GI50 (SF-268): 18.9 µM (inactive) | GI50 (NCI-H226): 15.8 µM (inactive) | GI50 (TK-10): 23.4 µM (inactive) | GI50 (SK-MEL-2): 17.2 µM (inactive) | GI50 (OVCAR-4): 19 µM (inactive) | GI50 (K562): 4.59 µM (inactive) | GI50 (HCC 2998): 16.9 µM (inactive) | GI50 (CCRF-CEM): 3.22 µM (inactive) | GI50 (SF-539): 16 µM (inactive) | GI50 (LOX IMVI): 13.7 µM (inactive) | GI50 (786-0): 14.6 µM (inactive) | GI50 (KM-20L2): 17 µM (inactive) | GI50 (HOP-92): 16.9 µM (inactive) | GI50 (Malme-3M): 19.8 µM (inactive) | GI50 (KM12): 13.9 µM (inactive) | GI50 (LXFL 529): 17 µM (inactive) | GI50 (A549): 17.7 µM (inactive) | GI50 (UO-31): 16.4 µM (inactive) | GI50 (OVCAR-5): 23.7 µM (inactive) | GI50 (SNB-78): 25.3 µM (inactive) | GI50 (RXF 393): 19.3 µM (inactive) | GI50 (RPMI-8226): 4.69 µM (inactive) | GI50 (HCT-116): 3.17 µM (inactive) | GI50 (HL-60): 2.09 µM (inactive) | GI50 (HT-29): 6.47 µM (inactive) | GI50 (HOP-18): 10.6 µM (inactive) | GI50 (UACC-62): 19.2 µM (inactive) | GI50 (A498): 17.9 µM (inactive) | GI50 (DMS-273): 13 µM (inactive) | GI50 (SK-OV-3): 16.3 µM (inactive) | GI50 (SK-MEL-5): 17.5 µM (inactive) | GI50 (RXF 631): 21.7 µM (inactive) | GI50 (SK-MEL-28): 14.2 µM (inactive) | GI50 (DLD-1): 22.6 µM (inactive) | GI50 (SR): 23.4 µM (inactive) | GI50 (OVCAR-3): 16 µM (inactive) | GI50 (HCT-15): 16.1 µM | GI50 (MOLT-4): 18.5 µM (inactive) | GI50 (IGROV-1): 16.6 µM (inactive) | GI50 (HOP-62): 17.3 µM (inactive)

O=C1c2ccccc2C2(O)Nc3cc(O)ccc3C12O (centres undefined)
GI50 (SF-295): > 100 µM (inactive) | GI50 (U-251): > 100 µM (inactive) | GI50 (SN12C): > 100 µM (inactive) | GI50 (ACHN): > 100 µM (inactive) | GI50 (SW-620): > 100 µM (inactive) | GI50 (CAKI-1): > 100 µM (inactive) | GI50 (SNB-19): > 100 µM (inactive) | GI50 (NCI-H522): > 100 µM (inactive) | GI50 (M14): > 100 µM (inactive) | GI50 (DMS-114): > 100 µM (inactive) | GI50 (COLO 205): > 100 µM (inactive) | GI50 (NCI-H460): > 100 µM (inactive) | GI50 (SNB-75): > 100 µM (inactive) | GI50 (EKVX): > 100 µM (inactive) | GI50 (OVCAR-8): > 100 µM (inactive) | GI50 (SF-268): > 100 µM (inactive) | GI50 (NCI-H226): > 100 µM (inactive) | GI50 (TK-10): > 100 µM (inactive) | GI50 (SK-MEL-2): > 100 µM (inactive) | GI50 (OVCAR-4): > 100 µM (inactive) | GI50 (K562): > 100 µM (inactive) | GI50 (CCRF-CEM): > 100 µM (inactive) | GI50 (SF-539): > 100 µM (inactive) | GI50 (LOX IMVI): > 100 µM (inactive) | GI50 (786-0): > 100 µM (inactive) | GI50 (KM-20L2): > 100 µM (inactive) | GI50 (HOP-92): > 100 µM (inactive) | GI50 (Malme-3M): > 100 µM (inactive) | GI50 (KM12): > 100 µM (inactive) | GI50 (LXFL 529): > 100 µM (inactive) | GI50 (A549): > 100 µM (inactive) | GI50 (OVCAR-5): > 100 µM (inactive) | GI50 (SNB-78): > 100 µM (inactive) | GI50 (RXF 393): > 100 µM (inactive) | GI50 (RPMI-8226): > 100 µM (inactive) | GI50 (HCT-116): > 100 µM (inactive) | GI50 (HL-60): > 100 µM (inactive) | GI50 (HT-29): > 100 µM (inactive) | GI50 (HOP-18): > 100 µM (inactive) | GI50 (UACC-62): > 100 µM (inactive) | GI50 (A498): > 100 µM (inactive) | GI50 (DMS-273): > 100 µM (inactive) | GI50 (SK-OV-3): > 100 µM (inactive) | GI50 (SK-MEL-5): > 100 µM (inactive) | GI50 (RXF 631): > 100 µM (inactive) | GI50 (SK-MEL-28): > 100 µM (inactive) | GI50 (DLD-1): > 100 µM (inactive) | GI50 (OVCAR-3): > 100 µM (inactive) | GI50 (HCT-15): > 100 µM | GI50 (MOLT-4): > 100 µM (inactive) | GI50 (IGROV-1): > 100 µM (inactive) | GI50 (NCI-H23): > 100 µM (inactive) | GI50 (HOP-62): > 100 µM (inactive)
